The subject of assay [1] is NLRP3 (IL-1β secretion from THP-1 cells). Briefly: IL-1β secretion assay in 384-well plates, PMA differentiated THP-1 cells, LPS and nigericin stimulation. Format: cell-based. The following applies: Homo sapiens; THP-1 cells, PMA 5 ng/mL, LPS 25 ng/mL, nigericin, IL-1β ELISA, 384-well; read-out: Activity. As to the method: Compounds as provided herein were tested in the following assay. […] Freezing medium was made up of 90% FBS and 10% DMSO. THP-1 cells were removed from the liquid nitrogen and placed into a 37° C. water bath to thaw, until signs of ice dissipated. The cells were then added to 9 mL of warm cell culture medium and centrifuged for 5 minutes at 1000 rpm. The supernatant was discarded, and the cells were resuspended in new cell culture medium. The THP-1 cells were then split and cultured in the cell culture medium, being passaged every 2-3 days (5×10^5 cells/mL passaged every two days, 3×10^5 cells/mL passaged every three days). Cell density was maintained between 5×10^5-1.5×10^6 viable cells/mL.
PMA was dissolved in DMSO to make a stock solution at 5 mg/mL and stored in 10 µl aliquots at -20° C. for single use. PMA is added to normal growth medium. LPS was diluted with 1 mL of water solution to provide a 1 mg/mL stock solution and stored in 15 µl aliquots at -20° C. for single use. Nigericin is diluted in ice cold 100% ethanol to 5 mg/mL (6.7 mM) and stored in 75 µL aliquots at -20° C. for single use. […] The two control conditions used to qualify and normalize test compound dose-response curves were as follows: High Control = 25 ng/mL LPS, 5 µM Nigericin, 0.5% DMSO, Low Control = 25 ng/mL, LPS, 0.5% DMSO.
THP-1 cells were diluted to provide a suspension at a concentration of 1.0×10^6 cells/mL with the total volume of suspension required to enable the desired number of assay plates. The growth media was supplemented with PMA (5 ng/mL final concentration) and the cells were incubated at 37° C. under a humidified atmosphere of 5% CO2 for 40 h.
All media was carefully aspirated from each culture flask. The cells were washed carefully with 1x DPBS. The cells were then briefly digested with trypsin LE for 5 minutes at 23° C. and immediately resuspended in cell growth media. After resuspension, the cells were centrifuged at 1000 rpm for 3 minutes and the supernatant was discarded. The cells were resuspended in DPBS and once again centrifuged at 1000 rpm for 5 minutes. The supernatant was discarded and the cell pellet was resuspended in serum-free media supplemented with LPS (25 ng/mL final concentration) to enable the distribution of 30 K THP-1 cells within 45 µL of media into each well of 384-well PDL-coated plates. The 384-well plates were then incubated at 37° C. under a humidified atmosphere of 5% CO2 for 2 h. Following this period, test compounds were dispensed by Tecan across the desired concentration range with all wells normalized to a final 0.5 % DMSO concentration. The plates were then incubated at 37° C. under a humidified atmosphere of 5% CO2 for 1 h. Following this period, 5 µL of the […] nigericin stock solution was added to each of the appropriate wells and plates were centrifuged at 1000 rpm for 30 seconds. The plates were the immediately reintroduced to the incubator at 37° C. under a humidified atmosphere of 5% CO2 for 2 h. After this time, 35 µL/well of supernatant was collected and transferred into v-bottom plate and centrifuged at 1000 rpm for 1 minute. These supernatant aliquots were analyzed using an IL-Iβ detection kit as described below. If needed, the test samples could be snap frozen and stored at -80° C. until analyzed.
To prepare each ELISA plate, capture antibody (mAb Mt175) was diluted with PBS to a final concentration of 2 µg/mL and then 20 µL of this solution was added to each well of the ELISA plate. Each plate was allowed to incubate overnight at 4° C. The next day, the capture antibody solution was removed and discarded. […] Each ELISA plate was then allowed to incubate for 1 hour at 23° C. After this time, the blocking buffer was removed and discarded. Each ELISA plate was washed 4 times with PBST. During this time, the v-bottomed plates containing the supernatant aliquots from the assay run were centrifuged at 300 g for 5 minutes before transferring 15 µL/well of the supernatant sample to each ELISA plate. […]
(In general: In an ELISA, binding on a coated surface is turned into a signal by an enzyme label.)

Assay [2] relates to NLRP3 (IL-1β release from THP-1 cells). Kind of assay: IL-1β detection in IFN-γ differentiated THP-1 cells, LPS induction and ATP, 96 well format. Particulars: Homo sapiens, IFN-γ 25 ng/mL, LPS 50 ng/mL, ATP 5 mM, IL-1β ELISA, read-out: Activity (IC50 class). Format: cell-based. As to the method: Compounds as provided herein were tested in the following assay. Cell culture medium employed contained RPMI 1640 medium (89%), FBS (10%), Pen/Strep (1%), and 2-mercaptoethanol (0.05 mM). Freezing medium was made up of 90% FBS and 10% DMSO. THP-1 cells were removed from the liquid nitrogen and placed into a 37° C. water bath to thaw, until signs of ice dissipated. The cells were then added to 9 mL of warm cell culture medium and centrifuged for 5 minutes at 1000 rpm. The supernatant was discarded, and the cells were resuspended in new cell culture medium. The THP-1 cells were then split and cultured in the cell culture medium, being passaged every 2-3 days (5×10^5 cells/mL passaged every two days, 3×10^5 cells/mL passaged every three days). Cell density was maintained between 5×10^5-1.5×10^6 viable cells/mL.
To freeze, cells were resuspended with fresh freezing medium, adjusting the cell density to between 3×10^6-10×10^6 cells/mL. The cell suspension was partitioned into 1 mL aliquots per vial, and the vials were transferred to a -80° C. freezer. After one day at -80° C., the cell vials were transferred to liquid nitrogen freezer for storage.
PBST solution was prepared by mixing 3600 mL of water, 400 mL of 10X PBS, and 4 mL of Tween 20. IFN-γ solution was reconstituted with 100 µL of water to obtain a 1 mg/mL solution, which was then diluted with 0.1 % BSA to provide a 100 ng/mL solution. The IFN-γ solution was stored at -20° C. LPS was reconstituted with 1 mL of PBS solution to obtain a 1 mg/mL stock solution, which was further diluted to 50 ng/mL with serum-free medium. The LPS solution was stored at 4° C.
The 96 well plates were then incubated at 37° C. under a humidified atmosphere of 5% CO2 for 24 h.
LPS induction: When IFN-γ treatment was completed, the supernatants were discarded by hand. 100 µL of a 1X solution of LPS in serum-free medium (50 ng/mL) was added. The plates were incubated in a 37° C. incubator under a humidified atmosphere of 5% CO2 for 4 h. Sample compounds were dissolved in DMSO and the compound solutions were dispensed to the wells using a Tecan D300e digital dispenser. The final concentration of DMSO for each well was 0.5%. The plates were then incubated at 37° C. under a humidified atmosphere of 5% CO2 for 1 h. 20 µL of a 6X solution of ATP was added (final concentration per well: 5 mM), and the plates incubated at 37° C. under a humidified atmosphere of 5% CO2 for 1 h. The supernatants were then collected and analyzed using an IL-Iβ detection kit. If needed, the test samples could be stored at -20° C. until analyzed.
Compound dilution: Compound solution source plates (20 µL of a 10 mM solution of each compound was delivered to the specified wells and stored in a nitrogen cabinet until tested.
Coat Elisa plate: The captured antibody (mAb Mt175) was diluted in PBS to a concentration of 2 µg/mL, and then used to coat the ELISA plate (SIGMA-P6366) overnight at 4° C.
The antibody coat was discarded and the plate was washed 4 times with PBST. The plate was blocked by adding 25 µL/well of blocking buffer (LiCor-927-40000) with 0.1% Tween 20, then incubated for 1 h at room temperature. The blocking buffer was then discarded and the plate was washed 4 times with PBST.
One hour before test sample addition, the sample plates were allowed to thaw at room temperature, centrifuged at 1000 rpm for 1 minute, and shaken for 30 seconds. 25 µL/well of the test samples were transferred to the ELISA plate, and the plate was incubated for 2 h at room temperature.
The test samples were discarded and the ELISA plate was washed 4 times with PBST. 15 µL/well of mAb7P10-biotin at 0.5 µg/mL (1:1000) in blocking buffer was then added to the ELISA plate and it was incubated for 1 h at room temperature.
The antibody was discarded and the ELISA plate was washed 4 times with PBST. Then 15 µL/well of streptavidin-HRP diluted 1:1000 in blocking buffer was added to the ELISA plate and it was allowed to incubate for 1 h at room temperature.

For the compound `C[C@]1(O)C[C@@H](NC(=O)Cn2nc(Cl)c(-c3ccccc3)cc2=O)C1` [Example 18, 2-(3-chloro-6-oxo-4-phenylpyridazin-1(6H)-yl)-N-(cis-3-hydroxy-3-methylcyclobutyl)acetamide], the IC50 in assay [1] was 50000 nM; in assay [2], > 15 µM.

With `CC(C)c1nn(CC(=O)N[C@H]2C[C@@](C)(O)C2)c(=O)cc1-c1cccc(Cl)c1` [Example 2, 2-(4-(3-chlorophenyl)-3-isopropyl-6-oxopyridazin-1(6H)-yl)-N-(cis-3-hydroxy-3-methylcyclobutyl)acetamide], the IC50 in assay [1] was 1490 nM; in assay [2], < 10 µM.

Consider `CC(C)c1nn(CC(=O)N[C@H]2C[C@@](C)(O)C2)c(=O)cc1-c1ccccn1` [Example 17], for which the IC50 in assay [1] was 19500 nM; in assay [2], < 10 µM. As for `CC(C)c1nn(CC(=O)N[C@H]2C[C@@](C)(O)C2)c(=O)cc1-c1ccccc1` [Example 1, N-(cis-3-hydroxy-3-methylcyclobutyl)-2-(3-isopropyl-6-oxo-4-phenylpyridazin-1(6H)-yl)acetamide], the IC50 was 3320 nM in assay [1] and < 10 µM in assay [2]. On to `CC(C)c1nn(CC(=O)N[C@H]2C[C@@](C)(O)C2)c(=O)cc1-c1cccc(F)c1` [Example 12, 2-(4-(3-fluorophenyl)-3-isopropyl-6-oxopyridazin-1(6H)-yl)-N-(cis-3-hydroxy-3-methylcyclobutyl)acetamide], for which the IC50 is 1660 nM in assay [1] and < 10 µM in assay [2]. Consider `CC(C)c1nn(CC(=O)N[C@H]2C[C@@](C)(O)C2)c(=O)cc1-c1cc(Cl)ccc1Cl` [Example 16, 2-(4-(2,5-dichlorophenyl)-3-isopropyl-6-oxopyridazin-1(6H)-yl)-N-(cis-3-hydroxy-3-methylcyclobutyl)acet amide], for which the figures for the IC50 in assay [1] and in assay [2] were 1150 nM and < 10 µM, respectively. For the compound `COc1cccc(-c2cc(=O)n(CC(=O)N[C@H]3C[C@@](C)(O)C3)nc2C(C)C)c1` [Example 7], the IC50 was 7060 nM in assay [1] and < 10 µM in assay [2].

Consider `CC(CF)c1nn(CC(=O)Nc2ncc(F)cn2)c(=O)cc1-c1cc(F)cc(F)c1` (centres unmarked) [Example 55, 2-[4-(3,5-difluorophenyl)-3-(1-fluoropropan-2-yl)-6-oxopyridazin-1-yl]-N-(5-fluoropyrimidin-2-yl)acetamide], for which, in assay [1], the IC50 worked out at 1060 nM.

As to `CCN1CCC[C@@H](NC(=O)Cn2nc(C3CCC3)c(-c3cccc(F)c3)cc2=O)C1` [Example 40, 2-[3-cyclobutyl-4-(3-fluorophenyl)-6-oxopyridazin-1-yl]-N-[(3R)-1-ethylpiperidin-3-yl]acetamide], in assay [1], the IC50 worked out at 1440 nM. On to `CC(C)c1nn(CC(=O)N[C@H]2C[C@@](C)(O)C2)c(=O)cc1-c1cc(F)ccc1F` [Example 24, 2-[4-(2,5-difluorophenyl)-6-oxo-3-propan-2-ylpyridazin-1-yl]-N-(cis-3-hydroxy-3-methylcyclobutyl)acetamide], for which the IC50 in assay [1] stood at 1900 nM. As to `CC(C)c1nn(CC(=O)N[C@H]2C[C@@](C)(O)C2)c(=O)cc1-c1cccc(C2CC2)c1` [Example 27, 2-[4-(3-cyclopropylphenyl)-6-oxo-3-propan-2-ylpyridazin-1-yl]-N-(cis-3-hydroxy-3-methylcyclobutyl)acetamide], the IC50 in assay [1] was determined as 1910 nM. For the compound `CCc1nn(CC(=O)Nc2ncncc2F)c(=O)c(C)c1-c1cccc(F)c1` [Example 52, 2-[3-ethyl-4-(3-fluorophenyl)-5-methyl-6-oxopyridazin-1-yl]-N-(5-fluoropyrimidin-4-yl)acetamide], the IC50 in assay [1] stood at 4360 nM. Regarding `Cc1c(-c2cc(F)cc(F)c2)c(C(C)C)nn(CC(=O)Nc2ncncc2F)c1=O` [Example 38, 2-[4-(3,5-difluorophenyl)-5-methyl-6-oxo-3-propan-2-ylpyridazin-1-yl]-N-(5-fluoropyrimidin-4-yl)acetamide], the IC50 in assay [1] came out at 812 nM. Still for that read-out and setting: next, `CC(C)c1nn(CC(=O)Nc2ncncc2F)c(=O)cc1-c1cccc2ccncc12` [Example 33]: 3210 nM; `O=C(Cn1nc(C2CC2(F)F)c(-c2cc(F)cc(F)c2)cc1=O)Nc1ncncc1F` (centres unmarked) [Example 49, 2-[3-(2,2-difluorocyclopropyl)-4-(3,5-difluorophenyl)-6-oxopyridazin-1-yl]-N-(5-fluoropyrimidin-4-yl)acetamide]: 3240 nM.

As to `CCc1c(-c2cccc(F)c2)c(C(C)C)nn(CC(=O)Nc2ncncc2F)c1=O` [Example 35, 2-[5-ethyl-4-(3-fluorophenyl)-6-oxo-3-propan-2-ylpyridazin-1-yl]-N-(5-fluoropyrimidin-4-yl)acetamide], the IC50 in assay [1] turned out to be 35300 nM.

The values above are taken from patent US20230348437A1, “COMPOUNDS, COMPOSITIONS AND METHODS” (Denali Therapeutics Inc., priority 2020, published 2023).
